Measurements as given in US20220089540A1 (Board of Trustees of Michigan State University, priority 2019, published 2022).

Experiments:
PD-L1 = PD-L1 induction in macrophages or RAW264.7 cells with cancer cell conditioned media (flow cytometry); assay type: cell-based, mouse; settings: for PD-L1 Levels: Table 4, Control 43.3
Protocol: (§1) RAW 264.7 mouse macrophage-like (ATCC) and E18-14C-27 (Wu et al., Cancer Res. 62, 6376-6380 (2002)) cells were cultured in DMEM supplemented with 10% fetal bovine serum (FBS). RAW 264.7 cells were cultured at 50000/well in a 6 well plate for 24 hours to determine PD-L1 levels. E18-14C-27 cells were cultured for 72 hours in the presence of LG268 for protein levels. Conditioned media was collected from E18-14C-27 at 60-70% confluence for 24 hours; media was then collected and centrifuged at 900 rpm for 5 minutes to eliminate any cell debris.
For PD-L1 staining, RAW 264.7 cells were plated at 25000 cells/ml in 6 well plates for 24 hours before adding conditioned media from E18-14C-27 and LG268. RAW 264.7 cells were cultured for additional 24 hours with E18-14C-27 conditioned media and LG268. […] THP-1 cells were stained and analyzed for the levels of PD-L1 following the same protocol.
Inhibitory receptors on lymphocytes such as PD-1 (programmed cell death protein 1) are important immune checkpoints that protect against autoimmunity as the interaction between PD-L1 (ligand) and the PD-1 receptor expressed on immune cells suppresses T cell activity. Immuno-oncology is revolutionizing cancer treatment, and enormous research efforts are ongoing to identify drugs that upregulate PD-L1 so that they can be combined with checkpoint inhibitors to boost efficacy. Macrophages or RAW264.7 cells are treated with conditioned media from cancer cells and rexinoids, and PD-L1 expression determined by flow cytometry. Higher numbers indicate better upregulation of PD-LI.
Using methods described herein, macrophages or RAW264.7 cells were treated with selected rexinoids and with conditioned media from cancer cells. Structures of the rexinoids are shown below.
PD-L1 expression was determined by flow cytometry.

E18-14C-27C cancer cells = experiment: PD-1 and PD-L1 expression in E18-14C-27C cancer cells; assay type: cell-based, mouse; settings: 72 hours
Protocol: as §1
To determine if these changes occurred in the tumor cells or in the macrophages, E18-14C-27C and RAW 264.7 cell lines were treated with LG268. […] Similar observations were made in human THP-1 monocytic cells stimulated with conditioned media from human HER2 positive SK-BR-3 breast cancer cells and treated with LG268 or bexarotene for 24 hours (FIG. 5E-5F).

tumors of PyMT mice [1] = experiment: PyMT mouse model of triple negative breast cancer, treatment until endpoint; assay type: in vivo
Protocol: To determine if the immune modulation induced by LG268 treatment in MMTV-Neu mice could be extended to a model of triple negative breast cancer (TNBC), the inventors repeated the in vivo studies in PyMT mice. PyMT mice with a tumor volume of 32-64 mm^3 were treated with LG268 (100 mg/kg of diet) or with a control diet until the tumor burden met maximum defined endpoints allowed by the IACUC-approved animal protocol (individual tumor volume <520 mm^3). In mice receiving the control diet, these tumors progressed extremely rapidly so that the average age to reach maximum tumor volume was 31 days.

tumors of PyMT mice [2] = experiment: PyMT mice, 15-day protocol with or without anti-PD-L1 antibodies; assay type: in vivo, mouse
Protocol: To evaluate if LG268 treatment would have immunomodulatory effects, PyMT mice with a tumor volume of 32-64 mm^3 were treated with LG268 (100 mg/kg of diet) or control diet for 14 days (FIG. 7A). Mice were euthanized at day 15, and tumor, intact mammary gland and spleen were analyzed by flow cytometry, immunohistochemistry and immunoblotting (whole tumor lysates). At day 15, mice treated with LG268 presented higher levels of PD-L1 when compared with control mice (FIG. 7D-7E).
The inventors tested whether the combination of an immune checkpoint inhibitor and LG268 for the treatment of PyMT tumors would further increase the infiltration of cytotoxic CD8 T cells. PyMT mice with 32-64 mm3 mice were treated by intraperitoneal injection with anti-PD-L1 (40 μg/mouse) or isotype control antibodies on days 3, 7 and 11, in combination with LG268 or control diet (FIG. 7A).

RAR receptor = settings: cited from earlier work

Cc1cc2c(cc1C1(c3ccc(C(=O)O)cn3)CC1)C(C)(C)CCC2(C)C [LG268]
PD-L1 Levels (PD-L1; 100 nM): 66.7 | PD-L1 Levels (PD-L1; 1000 nM): 77 | PD-L1 levels in RAW 264.7 cells with E18-14C-27C conditioned media (PD-L1; 24 hours): increased levels | PD-L1 expression (E18-14C-27C cancer cells; flow cytometry): did not change | PD-1 expression (E18-14C-27C cancer cells; western blot): decreased | average survival (time to maximum tumor volume) (tumors of PyMT mice [1]; 100 mg/kg diet, control 31 days): 49 days | infiltration of CD8 T cells (tumors of PyMT mice [1]; at endpoint): increased infiltration | levels of CD206 and p-STAT3 in whole lysates of the tumors (tumors of PyMT mice [1]; at endpoint): No differences | cells undergoing apoptosis (cleaved caspase 3) (tumors of PyMT mice [1]; immunohistochemistry at endpoint): higher number of cells undergoing apoptosis | p-STAT1 in whole lysates of tumors (tumors of PyMT mice [1]; western blot at endpoint): tendency for lower levels | PD-L1 levels in tumors vs control (tumors of PyMT mice [2]; 100 mg/kg diet, day 15): higher levels | immune cell populations infiltrating to the tumors (tumors of PyMT mice [2]; LG268 alone, day 15): did not induce any changes | spleen weight vs control diet (tumors of PyMT mice [2]; LG268 only): significant decrease | binding to the RAR receptor (RAR receptor): does not bind
